Assay results: ChEMBL document CHEMBL6134827, “The discovery of novel antimicrobial peptides against drug-resistant bacteria based on fragments fusion strategy” (Eur J Med Chem, 2025)
Activity calls are given as the source filed them. No cut-off for these calls is given here. Positions of bridges follow the written chain, without caps; N, C: chain ends. Non-standard residues stand in square brackets, D forms with d. Residues, ends and D or L forms follow the SMILES beside them. *: point of attachment. X1 = CC[C@H](C)CCCCC(=O)*; Dab = NCC[C@H](N)C(=O)O

Key:
[1] = Nephrotoxicity in female C57BL/6 mouse assessed as tubular dilation at 20 mg/kg, ip administered daily and measured for 5 days by H and E staining based analysis; type: toxicity, organism-based; details: in vivo, 120 h, time 5 day
[2] = Nephrotoxicity in female C57BL/6 mouse assessed as increase in BUN level at 15 mg/kg, ip administered daily and measured for 5 days; type: toxicity, organism-based; details: in vivo, 120 h, time 5 day
[3] = Nephrotoxicity in female C57BL/6 mouse assessed as presence of flocculents in lumen at 20 mg/kg, ip administered daily and measured for 5 days by H and E staining based analysis; type: toxicity, organism-based; details: in vivo, 120 h, time 5 day
[4] = Toxicity in female C57BL/6 mouse assessed as histopathological change in kidney at 20 mg/kg, ip administered daily and measured for 5 days by H and E staining based analysis; type: organism-based; details: in vivo, 120 h, time 5 day
Staphylococcus aureus [5] = test: Drug resistance, ratio of MIC for Staphylococcus aureus ATCC 29213 after 14 passages to MIC for Staphylococcus aureus ATCC 29213 after first exposure; type: functional
Staphylococcus aureus [6] = test: Drug resistance, ratio of MIC for multidrug resistant Staphylococcus aureus after 4 passages to MIC for multidrug resistant Staphylococcus aureus after first exposure; type: functional
Pseudomonas aeruginosa [7] = test: Drug resistance, ratio of MIC for multidrug resistant Pseudomonas aeruginosa after 5 passages to MIC for multidrug resistant Pseudomonas aeruginosa after first exposure; type: functional
Staphylococcus aureus [8] = test: Antimicrobial activity against multidrug resistant Staphylococcus aureus assessed as inhibition of visible microbial growth incubated for 18 hrs by broth microdilution method; type: functional
Staphylococcus aureus [9] = test: Antimicrobial activity against Staphylococcus aureus ATCC 29213 assessed as inhibition of visible microbial growth incubated for 18 hrs by broth microdilution method; type: functional
Staphylococcus aureus [10] = test: Drug resistance, ratio of MIC for Staphylococcus aureus ATCC 29213 after 4 passages to MIC for Staphylococcus aureus ATCC 29213 after first exposure; type: functional
Staphylococcus aureus [11] = test: Drug resistance, ratio of MIC for multidrug resistant Staphylococcus aureus after 10 passages to MIC for multidrug resistant Staphylococcus aureus after first exposure; type: functional
Escherichia coli [12] = test: Antimicrobial activity against multidrug resistant Escherichia coli assessed as inhibition of visible microbial growth incubated for 18 hrs by broth microdilution method; type: functional
Staphylococcus aureus [13] = test: Antibacterial activity against multidrug resistant Staphylococcus aureus assessed as reduction in bacterial growth at 32 microg/mL measured after 1.5 hrs by bactericidal kinetic assay; type: functional, organism-based; details: dose 32.0 µg/ml
Cell membrane [14] = test: Induction of cytoplasmic membrane depolarization in multidrug resistant Pseudomonas aeruginosa assessed as increase in fluorescence intensity measured for 12 min by DISC3-5 dye based fluorescence analysis; type: subcellular; details: dose 4-32 µg/ml
Pseudomonas aeruginosa [15] = test: Antimicrobial activity against multidrug resistant Pseudomonas aeruginosa assessed as inhibition of visible microbial growth incubated for 18 hrs by broth microdilution method; type: functional
[16] = Cytotoxicity against human BEAS-2B cells assessed as inhibition of cell growth measured after 24 hrs by CCK-8 assay; type: toxicity, cell-based
Cell membrane [17] = test: Induction of outer cell membrane permeabilization in multidrug resistant Pseudomonas aeruginosa assessed as increase in fluorescence intensity measured for 12 mins by NPN uptake assay; type: subcellular; details: dose 4-32 µg/ml
L02 = test: Cytotoxicity against human LO2 cells assessed as reduction in cell viability at 2 to 64 microg/mL measured after 24 hrs by CCK-8 assay; type: toxicity, cell-based; details: l02, 24 h, dose 2-64 µg/ml
Pseudomonas aeruginosa [18] = test: Antibacterial activity against multidrug resistant Pseudomonas aeruginosa assessed as reduction in bacterial growth at 32 microg/mL measured within 30 min by bactericidal kinetic assay relative to control; type: functional; set-up: scale not given: the % may be the effect or the level left; details: dose 32 µg/ml, 0.5 h
BEAS-2B = test: Cytotoxicity against human BEAS-2B cells assessed as reduction in cell viability at 2 to 64 microg/mL measured after 24 hrs by CCK-8 assay; type: toxicity, cell-based; details: dose 2-64 µg/ml
Escherichia coli [19] = test: Antimicrobial activity against Escherichia coli ATCC 25922 assessed as inhibition of visible microbial growth incubated for 18 hrs by broth microdilution method; type: functional
[20] = Hemolytic activity in human red blood cell assessed as hemolysis at 128 microg/ml measured after 1 hrs by microplate reader assay relative to control; type: toxicity, cell-based, Erythrocyte; details: red blood cells, at 128 µg/mL, read-out: Activity
Acinetobacter baumannii = test: Antimicrobial activity against multidrug resistant Acinetobacter baumannii assessed as inhibition of visible microbial growth incubated for 18 hrs by broth microdilution method; type: functional
[21] = Stability in 25% human plasma assessed as compound remaining measured after 24 hrs by RP-HPLC analysis; type: ADME, cell-free; details: 25% plasma, read-out: Stability
Cell membrane [22] = test: Induction of outer cell membrane permeabilization in multidrug resistant Pseudomonas aeruginosa assessed as increase in fluorescence intensity at >16 microg/ml measured for 12 mins by NPN uptake assay; type: subcellular; details: dose > 16.0 µg/ml
Pseudomonas aeruginosa [23] = test: Drug resistance, ratio of MIC for multidrug resistant Pseudomonas aeruginosa after 14 passages to MIC for multidrug resistant Pseudomonas aeruginosa after first exposure; type: functional
Bacillus subtilis = test: Antibacterial activity against Bacillus subtilis; type: functional

With CC(C)CCCCC(=O)N[C@@H](CCN)C(=O)N[C@H](C(=O)N[C@@H](CCN)C(=O)N[C@H]1CCNC(=O)[C@H]([C@@H](C)O)NC(=O)[C@H](CCN)NC(=O)[C@H](CCN)NC(=O)[C@H](CC(C)C)NC(=O)[C@@H](Cc2ccccc2)NC(=O)[C@H](CCN)NC1=O)[C@@H](C)O.CC[C@H](C)CCCCC(=O)N[C@@H](CCN)C(=O)N[C@H](C(=O)N[C@@H](CCN)C(=O)N[C@H]1CCNC(=O)[C@H]([C@@H](C)O)NC(=O)[C@H](CCN)NC(=O)[C@H](CCN)NC(=O)[C@H](CC(C)C)NC(=O)[C@@H](Cc2ccccc2)NC(=O)[C@H](CCN)NC1=O)[C@@H](C)O (X1-[Dab]T[Dab][Dab][Dab][dF]L[Dab][Dab]T; lactam 4-C) the Activity [1] was “Toxic”, the Activity [2] was “Toxic” and the Activity [3] was “Toxic”. For the same compound, the Activity [4] was “Non-toxic”.
C[C@H]1COc2c(N3CCN(C)CC3)c(F)cc3c(=O)c(C(=O)O)cn1c23 [LEVOFLOXACIN ANHYDROUS] showed a Ratio (Staphylococcus aureus [5]) of 512, a Ratio (Staphylococcus aureus [6]) of 4 and a Ratio (Pseudomonas aeruginosa [7]) of 16.
For CN[C@H](CC(C)C)C(=O)N[C@H]1C(=O)N[C@@H](CC(N)=O)C(=O)N[C@H]2C(=O)N[C@H]3C(=O)N[C@H](C(=O)N[C@H](C(=O)O)c4cc(O)cc(O)c4-c4cc3ccc4O)[C@H](O)c3ccc(c(Cl)c3)Oc3cc2cc(c3O[C@@H]2O[C@H](CO)[C@@H](O)[C@H](O)[C@H]2O[C@H]2C[C@](C)(N)[C@H](O)[C@H](C)O2)Oc2ccc(cc2Cl)[C@H]1O [VANCOMYCIN], the MIC (Staphylococcus aureus [8]) was 0.7 µM, the MIC (Staphylococcus aureus [9]) was 0.7 µM and the Ratio (Staphylococcus aureus [10]) was 4. It also gave a Ratio (Staphylococcus aureus [11]) of 2.
In the case of H-GIGKFLKKAKKFGKAFVKILKK-OH, the MIC (Escherichia coli [12]) is reported as 3.2 µM, the Activity (Staphylococcus aureus [13]) is reported as “Not active; Bacterial Regrowth Observed” and the Activity (Cell membrane [14]) is reported as “Dose-dependent-effect”. For the same compound, the MIC (Pseudomonas aeruginosa [15]) was 3.2 µM, the CC50 at 24 h [16] was 45.9 µg/mL and the Activity (Cell membrane [17]) was “Dose-dependent-effect”. For the same compound, the Activity (L02) was “Toxic”, the Activity (Pseudomonas aeruginosa [18]) was 100% and the Activity (BEAS-2B) was “Toxic”. The MIC (Escherichia coli [19]) was 3.2 µM, the hemolysis at 1 h, 128 µg/mL [20] was < 10% and the Ratio (Staphylococcus aureus [6]) was 8. It also gave an MIC (Acinetobacter baumannii) of 1.6 µM, a remaining at 24 h [21] of 34% and an MIC (Staphylococcus aureus [8]) of 12.9 µM. For the same compound, the Activity (Cell membrane [22]) was “Active”, the Ratio (Pseudomonas aeruginosa [23]) was 4 and the MIC (Staphylococcus aureus [9]) was 12.9 µM. It also gave a Ratio (Staphylococcus aureus [10]) of 8.
In the case of H-GLRKRLRKFFNKIKF-OH, the MIC (Escherichia coli [12]) is reported as 4.1 µM, the MIC (Pseudomonas aeruginosa [15]) is reported as 16.4 µM and the MIC (Escherichia coli [19]) is reported as 8.2 µM. For the same compound, the MIC (Acinetobacter baumannii) was 16.4 µM, the MIC (Staphylococcus aureus [8]) was 65.7 µM and the MIC (Staphylococcus aureus [9]) was 32.8 µM. For the same compound, the MIC (Bacillus subtilis) was > 3 µM.
